Strand notation (5' to 3'): a small letter for the sugar, then the base; units joined by * are phosphorothioate-linked, units joined directly phosphodiester-linked; [ ] holds rarer units or linkages, { } end groups; capitals alone tell only the bases. e = 2'-O-(2-methoxyethyl) (MOE); [5mC] = 5-methylcytosine; d = 2'-deoxy (DNA)
Experiments:
human SMAD7 mRNA [1] = test: Dose-dependent inhibition of human SMAD7 mRNA expression in A431 cells, oligonucleotide added without transfection (Example 5, Study 1); type: cell-based; settings: approximately 48 hours
Method: The newly designed compounds disclosed herein are cEt-modified antisense oligonucleotides. […] The studies described below show a comparison of select cEt-modified gapmers and ION0736697/Mongersen.
A431 cells were plated in collagen I-coated 96-well plates in DMEM with […]. Immediately after plating, 0.08 μM, 0.25 μM, 0.74 μM, 2.22 μM, 6.67 μM, or 20.00 μM concentrations of antisense oligonucleotide were added. The plates were shaken briefly before incubating at 37° C. and 10% CO2. After a treatment period of approximately 48 hours, the cells were washed and lyzed and RNA on 384-well Pall plates with DNase I treatment. SMAD7 mRNA levels were measured by quantitative real-time PCR. Primer probe set RTS5062 was used to measure human SMAD7 mRNA levels. SMAD7 mRNA levels were adjusted according to total RNA content, as measured by RIBOGREEN®. Results are presented as percent inhibition of SMAD7 mRNA expression, relative to untreated control cells.
All Ionis oligonucleotides had greater potency than ION 736697/Mongersen.

murine Smad7 mRNA = test: Dose-dependent inhibition of murine Smad7 mRNA in bEND cells, electroporation (Example 5, Study 2); type: cell-based, mouse; settings: electroporation; for % inhibition of SMAD7 mRNA expression: approximately 16 hours
Method: Many of the Ionis designed oligonucleotides as well as ION 736697/Mongersen are complementary to mouse Smad7 mRNA. […] After a treatment period of approximately 16 hours, the cells were washed and lyzed and RNA on 384-well Pall plates with DNase I treatment. Smad7 mRNA levels were measured by quantitative real-time PCR. Primer probe set RTS1114 (forward sequence […], designated herein as SEQ ID NO: 8; reverse sequence […], designated herein as SEQ ID NO: 9; probe sequence […], designated herein as SEQ ID NO: 10) was used to measure murine Smad7 mRNA levels. Smad7 mRNA levels were adjusted according to total RNA content, as measured by RIBOGREEN®. Results are presented as percent inhibition of Smad7 mRNA expression, relative to untreated control cells.
Many of the Ionis oligonucleotides had greater potency than ION 736697/Mongersen.

[2] = tested on: human peripheral blood mononuclear cells (PBMCs); test: Human PBMC activation assay, cytokine levels (IL-10, IL-6, MCP-1, TNF-α) in supernatant after 24 hours (Example 9); settings: human PBMC supernatant after 24 hours
Method: Ionis SMAD7 oligonucleotides were tested in an in vitro assay for potential immunostimulatory properties in an in vitro human peripheral blood mononuclear cell (PBMC) activation assay.
Blood samples were collected from healthy human volunteers in heparinized vials and mixed well. Human PBMCs were isolated by gradient centrifugation using Ficoll-Histopaque. The cells were washed, counted and resuspended in medium. The PBMCs were plated in a 24-well culture plate and various concentrations of oligonucleotides were added to the media. An oligonucleotide historically known to promote an inflammatory response was used as a positive control, whereas an oligonucleotide known not to be pro-inflammatory was used as a negative control. […] The supernatants were collected after 24 hours and analyzed for cytokine levels using MSD platform.

human SMAD7 mRNA [3] = test: Antisense inhibition of human SMAD7 mRNA expression in Hep3B cells by 3-10-3 cEt gapmers, 10,000 nM, electroporation (Example 2); type: cell-based; settings: Hep3B cells, electroporation with 10,000 nM antisense oligonucleotide, approximately 24 hours, primer probe set RTS5062, relative to untreated control cells
Procedure, shortened: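 SMAD7 mRNA was measured by real-time PCR (RTS5062) with RiboGreen total-RNA normalization, about 24 h after 10,000 nM gapmer was delivered by electroporation into Hep3B cells at 20,000 per well. Gapmers were 16-mer 3-10-3 cEt, fully phosphorothioate; values are % inhibition versus untreated controls.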

human SMAD7 mRNA [4] = test: Dose-dependent inhibition of human SMAD7 mRNA expression in Hep3B cells (Example 3, Study 1 and 2); type: cell-based; settings: electroporation; for % inhibition of SMAD7 mRNA expression: approximately 16 hours
Procedure, shortened: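 Hep3B cells, 20,000 per well, electroporated with antisense oligonucleotide at 0.31, 1.25, 5.00 or 20.00 μM (first series) or 0.74, 2.22, 6.67 or 20.00 μM (second series). After ~16 h, SMAD7 mRNA measured by RT-qPCR (RTS5062), normalised to RIBOGREEN total RNA. Percent inhibition vs untreated cells; IC50 derived.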

human SMAD7 mRNA [5] = test: Antisense inhibition of human SMAD7 mRNA expression in Hep3B cells by 5-10-5 MOE gapmers, single concentration, electroporation, RT-PCR (Example 1, Study 1 and 2); type: cell-based; settings: 5-10-5 MOE gapmers targeting SEQ ID NO: 1 and 2
Procedure, shortened: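 Readout is percent SMAD7 mRNA inhibition versus untreated cells, measured by qRT-PCR (RTS5062) and corrected for total RNA by RIBOGREEN. Oligonucleotide, 5,000 nM or 15,000 nM, was delivered by electroporation into Hep3B cells at 20,000 per well. RNA was collected about 24 h later.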

[6] = 312.5 nM, Study 1, relative to untreated control cells

“736697 (antisense GTCGCCCCTTCTCCCCGCAGC; chemistry not fully specified) [compound 736697]” was tested, and the “% inhibition of SMAD7 mRNA expression” value (human SMAD7 mRNA [1]; 0.08 μM) was 14%, the “% inhibition of SMAD7 mRNA expression” value (human SMAD7 mRNA [1]; 0.25 μM) was 20% and the “% inhibition of SMAD7 mRNA expression” value (human SMAD7 mRNA [1]; 0.74 μM) was 24%. The “% inhibition of SMAD7 mRNA expression” value (human SMAD7 mRNA [1]; 2.22 μM) was 13%, the “% inhibition of SMAD7 mRNA expression” value (human SMAD7 mRNA [1]; 6.67 μM) was 34% and the “% inhibition of SMAD7 mRNA expression” value (human SMAD7 mRNA [1]; 20.00 μM) was 37%. The IC50 (human SMAD7 mRNA [1]; SMAD7 mRNA) was over 20 µM, the “% inhibition of SMAD7 mRNA expression” value (murine Smad7 mRNA; 0.25 μM) was 1% and the “% inhibition of SMAD7 mRNA expression” value (murine Smad7 mRNA; 0.74 μM) was 1%. The “% inhibition of SMAD7 mRNA expression” value (murine Smad7 mRNA; 2.22 μM) was 0%, the “% inhibition of SMAD7 mRNA expression” value (murine Smad7 mRNA; 6.67 μM) was 0% and the “% inhibition of SMAD7 mRNA expression” value (murine Smad7 mRNA; 20.00 μM) was 0%. For the same substance, the IC50 (murine Smad7 mRNA) was over 20 µM, the “Levels of IL-6” value ([2]; 0.0128 μM oligonucleotide) was 3.6 pg/mL and the “Levels of IL-10” value ([2]; 0.0128 μM oligonucleotide) was 2.1 pg/mL. The “Levels of MCP-1” value ([2]; 0.0128 μM oligonucleotide) was 297.6 pg/mL, the “Levels of TNF-α” value ([2]; 0.0128 μM oligonucleotide) was 2.8 pg/mL and the “Levels of IL-6” value ([2]; 0.064 μM oligonucleotide) was 5.3 pg/mL. For the same substance, the “Levels of IL-10” value ([2]; 0.064 μM oligonucleotide) was 3.1 pg/mL, the “Levels of MCP-1” value ([2]; 0.064 μM oligonucleotide) was 385.9 pg/mL and the “Levels of TNF-α” value ([2]; 0.064 μM oligonucleotide) was 3.5 pg/mL. The “Levels of IL-6” value ([2]; 0.32 μM oligonucleotide) was 12.3 pg/mL, the “Levels of IL-10” value ([2]; 0.32 μM oligonucleotide) was 3.5 pg/mL and the “Levels of MCP-1” value ([2]; 0.32 μM oligonucleotide) was 681.3 pg/mL. The “Levels of TNF-α” value ([2]; 0.32 μM oligonucleotide) was 5.5 pg/mL, the “Levels of IL-6” value ([2]; 1.6 μM oligonucleotide) was 15.5 pg/mL and the “Levels of IL-10” value ([2]; 1.6 μM oligonucleotide) was 2.2 pg/mL. The “Levels of MCP-1” value ([2]; 1.6 μM oligonucleotide) was 693.9 pg/mL, the “Levels of TNF-α” value ([2]; 1.6 μM oligonucleotide) was 6.8 pg/mL and the “Levels of IL-6” value ([2]; 8 μM oligonucleotide) was 57.4 pg/mL. The “Levels of IL-10” value ([2]; 8 μM oligonucleotide) was 4.2 pg/mL, the “Levels of MCP-1” value ([2]; 8 μM oligonucleotide) was 2306.8 pg/mL and the “Levels of TNF-α” value ([2]; 8 μM oligonucleotide) was 13.6 pg/mL. For the same substance, the “Levels of IL-6” value ([2]; 40 μM oligonucleotide) was 63.3 pg/mL, the “Levels of IL-10” value ([2]; 40 μM oligonucleotide) was 4.7 pg/mL and the “Levels of MCP-1” value ([2]; 40 μM oligonucleotide) was 2974.9 pg/mL. The “Levels of TNF-α” value ([2]; 40 μM oligonucleotide) was 28.1 pg/mL, the “Levels of IL-6” value ([2]; 200 μM oligonucleotide) was 64.8 pg/mL and the “Levels of IL-10” value ([2]; 200 μM oligonucleotide) was 4.0 pg/mL. The “Levels of MCP-1” value ([2]; 200 μM oligonucleotide) was 622.8 pg/mL and the “Levels of TNF-α” value ([2]; 200 μM oligonucleotide) was 43.7 pg/mL.

For “771576 (antisense eG*eG*eG*e[5mC]*eA*dG*dG*dA*dG*dA*dG*dA*d[5mC]*dA*d[5mC]*e[5mC]*eG*e[5mC]*eT*eT) [compound 771576]”, the “% Inhibition” value (human SMAD7 mRNA [3]) was 49%, the “% inhibition of SMAD7 mRNA expression” value (human SMAD7 mRNA [3]) was 50% and the “% inhibition of SMAD7 mRNA expression” value (human SMAD7 mRNA [4]; [6]) was 9%. For the same substance, the “% inhibition of SMAD7 mRNA expression” value (human SMAD7 mRNA [4]; 740 nM, Study 2, relative to untreated control cells) was 0%, the “% inhibition of SMAD7 mRNA expression” value (human SMAD7 mRNA [4]; 1250.0 nM, Study 1) was 24% and the “% inhibition of SMAD7 mRNA expression” value (human SMAD7 mRNA [4]; 2220 nM, Study 2) was 23%. The “% inhibition of SMAD7 mRNA expression” value (human SMAD7 mRNA [4]; 5000.0 nM, Study 1) was 55%, the “% inhibition of SMAD7 mRNA expression” value (human SMAD7 mRNA [4]; 6670.0 nM, Study 2) was 23% and the “% inhibition of SMAD7 mRNA expression” value (human SMAD7 mRNA [4]; 20000.0 nM, Study 1) was 75%. For the same substance, the “% inhibition of SMAD7 mRNA expression” value (human SMAD7 mRNA [4]; 20000.0 nM, Study 2) was 22%, the IC50 (human SMAD7 mRNA [4]; Study 1 (312.5-20000 nM)) was 4 µM and the IC50 (human SMAD7 mRNA [4]; Study 2 (740-20000 nM)) was over 20 µM. For the same substance, the “% Inhibition of SMAD7 mRNA” value (human SMAD7 mRNA [5]; electroporation with 15,000 nM antisense oligonucleotide (Study 2)) was 64% and the “% inhibition of SMAD7 mRNA expression” value (human SMAD7 mRNA [5]; electroporation, 15,000 nM antisense oligonucleotide (Study 2)) was 28%.

“771902 (antisense eG*eG*eG*eT*eT*d[5mC]*dT*d[5mC]*d[5mC]*dA*dG*d[5mC]*d[5mC]*dG*d[5mC]*eT*e[5mC]*eA*eG*eA) [compound 771902]” was tested, and the “% inhibition of SMAD7 mRNA expression” value (human SMAD7 mRNA [4]; [6]) was 0%, the “% inhibition of SMAD7 mRNA expression” value (human SMAD7 mRNA [4]; 1250.0 nM, Study 1) was 17% and the “% inhibition of SMAD7 mRNA expression” value (human SMAD7 mRNA [4]; 5000.0 nM, Study 1) was 29%. For the same substance, the “% inhibition of SMAD7 mRNA expression” value (human SMAD7 mRNA [4]; 20000.0 nM, Study 1) was 59%, the IC50 (human SMAD7 mRNA [4]; Study 1 (312.5-20000 nM)) was 13 µM and the “% Inhibition” value (human SMAD7 mRNA [5]; Study 2, electroporation with 15,000 nM antisense oligonucleotide) was 77%.

Reference: patent US10517889B2, “Modulators of SMAD7 expression” (Ionis Pharmaceuticals, Inc., priority 2017, dated 2019)
